One may read the IC50 as the concentration that inhibits the measured activity by half. A low value points to greater potency.

This assay concerns the target T1, human CGT (ceramide galactosyltransferase), CHO/CGT lysate (Homo sapiens, UniProt Q16880).
T1 construct: Full-length human CGT cDNA was cloned into the BamH1/Xho1 site of pcDNA3.1 (+); expressed in transfected cells; host or cells: Chinese hamster ovary (CHO) cells; lysate prepared with M-PER
T1 sequence (Q16880 21-541): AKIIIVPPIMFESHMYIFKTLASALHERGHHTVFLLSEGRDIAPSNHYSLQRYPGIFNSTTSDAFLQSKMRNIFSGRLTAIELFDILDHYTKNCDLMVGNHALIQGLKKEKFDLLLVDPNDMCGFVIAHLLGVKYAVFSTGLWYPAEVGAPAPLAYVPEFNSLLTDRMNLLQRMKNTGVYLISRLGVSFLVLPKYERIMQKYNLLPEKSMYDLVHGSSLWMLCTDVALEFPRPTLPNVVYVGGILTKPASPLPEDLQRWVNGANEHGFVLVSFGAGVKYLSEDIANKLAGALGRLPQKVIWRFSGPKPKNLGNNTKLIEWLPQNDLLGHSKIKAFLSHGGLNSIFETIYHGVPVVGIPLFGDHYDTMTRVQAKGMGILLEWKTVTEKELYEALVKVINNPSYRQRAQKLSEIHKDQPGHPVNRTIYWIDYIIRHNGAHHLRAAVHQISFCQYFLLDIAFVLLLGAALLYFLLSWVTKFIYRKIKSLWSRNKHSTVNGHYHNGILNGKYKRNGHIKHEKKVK
Description: CGT enzyme assay, RapidFire/MS/MS readout with 0.01% Tween added (Table 1 ranges with two asterisks **). The class given is biochemical. Conditions: CGT enzymatic assay; range with two asterisks (**): RapidFire/MS/MS method with 0.01% Tween added. Summed up:
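IC50s come from variable-slope dose-response fits of internal-standard-normalized C6-NBD-dihydro-galactosylceramide, measured by RapidFire/MS/MS (ESI negative). Reactions: 1 h, 37 °C, human CGT-expressing CHO lysate (4 μg), 0.001–50 μM compound, 10 μM NBD-dihydro-ceramide, 17.5 μM UDP-galactose, 0.5% DMSO, pH 7.2; 0.01% Tween 80 added for ** values.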

On to `NC1CCN(C(=O)[C@@H](NS(=O)(=O)c2ccc(CCOC3CCCC3)cc2)C(F)(F)c2ccc(-c3ccc(Cl)cc3)cc2)CC1` [Compound 185-1, (R)-N-(3-(4-aminopiperidin-1-yl)-1-(4′-chloro-[1,1′-biphenyl]-4-yl)-1,1-difluoro-3-oxopropan-2-yl)-4-(2-(cyclopentyloxy)ethyl)benzenesulfonamide], for which the IC50 fell in the range of 10 to 30 µM.
The figure for `NC1CCN(C(=O)[C@H](NS(=O)(=O)c2ccc(CCOC3CCCC3)cc2)C(F)(F)c2ccc(-c3ccc(Cl)cc3)cc2)CC1` [Compound 185-2, (S)-N-(3-(4-aminopiperidin-1-yl)-1-(4′-chloro-[1,1′-biphenyl]-4-yl)-1,1-difluoro-3-oxopropan-2-yl)-4-(2-(cyclopentyloxy)ethyl)benzenesulfonamide] is 30 to 100 µM.
Take `N[C@H]1CCN(C(=O)[C@@H](NS(=O)(=O)c2ccc(OCC3CCCCC3)cc2)C(F)(F)c2ccc(Cl)cc2)C1` [Compound 186-1, N-((R)-3-((S)-3-aminopyrrolidin-1-yl)-1-(4-chlorophenyl)-1,1-difluoro-3-oxopropan-2-yl)-4-(cyclohexylmethoxy)benzenesulfonamide]: the IC50 was in the range of 1 to 10 µM.
`N[C@H]1CCN(C(=O)[C@H](NS(=O)(=O)c2ccc(OCC3CCCCC3)cc2)C(F)(F)c2ccc(Cl)cc2)C1` [Compound 186-2, N-((S)-3-((S)-3-aminopyrrolidin-1-yl)-1-(4-chlorophenyl)-1,1-difluoro-3-oxopropan-2-yl)-4-(cyclohexylmethoxy)benzenesulfonamide] came in with an IC50 of 30 to 100 µM.
The figure for `NC1CCN(C(=O)[C@@H](N(CC(F)(F)F)S(=O)(=O)c2ccc3cc(OC4CCCC4)ccc3c2)C(F)(F)c2ccc(Br)cc2)CC1` [Compound 187-1, (R)-N-(3-(4-aminopiperidin-1-yl)-1-(4-bromophenyl)-1,1-difluoro-3-oxopropan-2-yl)-6-(cyclopentyloxy)-N-(2,2,2-trifluoroethyl)naphthalene-2-sulfonamide] is 30 to 100 µM.
On to `NC1CCN(C(=O)[C@H](N(CC(F)(F)F)S(=O)(=O)c2ccc3cc(OC4CCCC4)ccc3c2)C(F)(F)c2ccc(Br)cc2)CC1` [Compound 187-2, (S)-N-(3-(4-aminopiperidin-1-yl)-1-(4-bromophenyl)-1,1-difluoro-3-oxopropan-2-yl)-6-(cyclopentyloxy)-N-(2,2,2-trifluoroethyl)naphthalene-2-sulfonamide], for which the IC50 is 30 to 100 µM.
Then `O=C([C@@H](NS(=O)(=O)c1ccc2cc(OC3CCCC3)ccc2c1)C(F)(F)c1ccc(-c2ccc(Cl)cc2)cc1)N1CCNC2(CC2)C1` [Compound 188-1, (R)-N-(1-(4′-chloro-[1,1′-biphenyl]-4-yl)-1,1-difluoro-3-oxo-3-(4,7-diazaspiro[2.5]octan-7-yl)propan-2-yl)-6-(cyclopentyloxy)naphthalene-2-sulfonamide], with 1 to 10 µM; and `O=C([C@H](NS(=O)(=O)c1ccc2cc(OC3CCCC3)ccc2c1)C(F)(F)c1ccc(-c2ccc(Cl)cc2)cc1)N1CCNC2(CC2)C1` [Compound 188-2, (S)-N-(1-(4′-chloro-[1,1′-biphenyl]-4-yl)-1,1-difluoro-3-oxo-3-(4,7-diazaspiro[2.5]octan-7-yl)propan-2-yl)-6-(cyclopentyloxy)naphthalene-2-sulfonamide], with 30 to 100 µM.
With `N[C@@H]1CCN(C(=O)[C@@H](NS(=O)(=O)c2ccc(OCC3CCCCC3)cc2)C(F)(F)c2ccc(Cl)cc2)C1` [Compound 189-1, N-((R)-3-((R)-3-aminopyrrolidin-1-yl)-1-(4-chlorophenyl)-1,1-difluoro-3-oxopropan-2-yl)-4-(cyclohexylmethoxy)benzenesulfonamide], the IC50 lay within 1 to 10 µM.
Then `N[C@@H]1CCN(C(=O)[C@H](NS(=O)(=O)c2ccc(OCC3CCCCC3)cc2)C(F)(F)c2ccc(Cl)cc2)C1` [Compound 189-2, N-((S)-3-((R)-3-aminopyrrolidin-1-yl)-1-(4-chlorophenyl)-1,1-difluoro-3-oxopropan-2-yl)-4-(cyclohexylmethoxy)benzenesulfonamide], with 10 to 30 µM.
The figure for `COc1cc(C(F)(F)[C@H](NS(=O)(=O)c2ccc(OCC3CCCCC3)cc2)C(=O)N2C[C@H]3CNC[C@H]3C2)ccc1-c1ccc(Cl)cc1` [Compound 190-1, N-((R)-1-(4′-chloro-2-methoxy-[1,1′-biphenyl]-4-yl)-1,1-difluoro-3-((3aR,6aS)-hexahydropyrrolo[3,4-c]pyrrol-2(1H)-yl)-3-oxopropan-2-yl)-4-(cyclohexylmethoxy)benzenesulfonamide] is 1 to 10 µM.
The figure for `COc1cc(C(F)(F)[C@@H](NS(=O)(=O)c2ccc(OCC3CCCCC3)cc2)C(=O)N2C[C@H]3CNC[C@H]3C2)ccc1-c1ccc(Cl)cc1` [Compound 190-2, N-((S)-1-(4′-chloro-2-methoxy-[1,1′-biphenyl]-4-yl)-1,1-difluoro-3-((3aR,6aS)-hexahydropyrrolo[3,4-c]pyrrol-2(1H)-yl)-3-oxopropan-2-yl)-4-(cyclohexylmethoxy)benzenesulfonamide] is 30 to 100 µM; for `O=C([C@@H](NS(=O)(=O)c1ccc2cc(OC3CCCC3)ccc2c1)C(F)(F)c1ccc(-c2ccc(Cl)cc2)cc1)N1CCC12CNC2` [Compound 191-1, (R)-N-(1-(4′-chloro-[1,1′-biphenyl]-4-yl)-1,1-difluoro-3-oxo-3-(1,6-diazaspiro[3.3]heptan-1-yl)propan-2-yl)-6-(cyclopentyloxy)naphthalene-2-sulfonamide] it is under 1 µM; for `O=C([C@H](NS(=O)(=O)c1ccc2cc(OC3CCCC3)ccc2c1)C(F)(F)c1ccc(-c2ccc(Cl)cc2)cc1)N1CCC12CNC2` [Compound 191-2, (S)-N-(1-(4′-chloro-[1,1′-biphenyl]-4-yl)-1,1-difluoro-3-oxo-3-(1,6-diazaspiro[3.3]heptan-1-yl)propan-2-yl)-6-(cyclopentyloxy)naphthalene-2-sulfonamide] it is 1 to 10 µM.
Compound `O=C([C@@H](NS(=O)(=O)c1ccc2cc(OC3CCCC3)ccc2c1)C(F)(F)c1ccc(-c2ccc(Cl)cc2)cc1)N1CC[C@H]2CNC[C@H]21` [Compound 192-1, N-((R)-1-(4′-chloro-[1,1′-biphenyl]-4-yl)-1,1-difluoro-3-((3aS,6aS)-hexahydropyrrolo[3,4-b]pyrrol-1(2H)-yl)-3-oxopropan-2-yl)-6-(cyclopentyloxy)naphthalene-2-sulfonamide] registered an IC50 of 1 to 10 µM.
Compound `O=C([C@H](NS(=O)(=O)c1ccc2cc(OC3CCCC3)ccc2c1)C(F)(F)c1ccc(-c2ccc(Cl)cc2)cc1)N1CC[C@@H]2CNC[C@@H]21` [Compound 192-2, N-((S)-1-(4′-chloro-[1,1′-biphenyl]-4-yl)-1,1-difluoro-3-((3aR,6aR)-hexahydropyrrolo[3,4-b]pyrrol-1(2H)-yl)-3-oxopropan-2-yl)-6-(cyclopentyloxy)naphthalene-2-sulfonamide] showed an IC50 of 10 to 30 µM.
Take `O=C([C@@H](NS(=O)(=O)c1ccc2cc(OC3CCCC3)ccc2c1)C(F)(F)c1ccc(-c2ccc(Cl)cc2)cc1)N1CC[C@@H]2CNC[C@@H]21` [Compound 192-3, N-((R)-1-(4′-chloro-[1,1′-biphenyl]-4-yl)-1,1-difluoro-3-((3aR,6aR)-hexahydropyrrolo[3,4-b]pyrrol-1(2H)-yl)-3-oxopropan-2-yl)-6-(cyclopentyloxy)naphthalene-2-sulfonamide]: the IC50 was under 1 µM.

The values above are taken from patent US20190322676A1, “CERAMIDE GALACTOSYLTRANSFERASE INHIBITORS FOR THE TREATMENT OF DISEASE” (BioMarin Pharmaceutical Inc., priority 2016, published 2019).
